Assay results taken from patent US20170096504A1, “METHOD FOR PRODUCING FLUOROPOLYMER AQUEOUS DISPERSION LIQUID” (DAIKIN INDUSTRIES, LTD., priority 2014, published 2017).

What was measured:
[1] = Critical micelle concentration by surface tension measurement; type: physicochemical
From the text: The critical micelle concentration may be determined by measuring the surface tension. The surface tension may be measured using a surface tensiometer CBVP-A3 (Kyowa Interface Science Co., Ltd.), for example.
The critical micelle concentration may be determined in accordance with “Environmental Science & Technology (2011)”, 45(19), 8120-8128 and the literature cited therein.

[2] = Log POW (1-octanol/water partition coefficient) by HPLC calibration
Procedure: Log POW is a 1-octanol/water partition coefficient which is represented by Log P (wherein P is the ratio between the concentration of the fluorosurfactant in octanol and that in water in a phase-separated octanol/water (1:1) liquid mixture containing the fluorosurfactant).
Log POW is determined as follows. Specifically, HPLC is performed on standard substances (heptanoic acid, octanoic acid, nonanoic acid, and decanoic acid) each having a known octanol/water partition coefficient using TOSOH ODS-120T (φ4.6 mm×250 mm) as a column and acetonitrile/0.6 mass % HClO4 aqueous solution (=1/1 (vol/vol %)) as an eluent at a flow rate of 1.0 ml/min, a sample amount of 300 μL, and a column temperature of 40° C.; with a detection light of UV 210 nm. For each standard substance, a calibration curve is drawn with respect to the elution time and the known octanol/water partition coefficient. Based on this calibration curve, Log POW is calculated from the elution time of the sample liquid in HPLC.

Compound | critical micelle concentration [1] | chromatographic logP [2]
N.O=C(O)C(F)(OC(F)(F)C(F)(F)C(F)(F)F)C(F)(F)F (centres unmarked) [C3F7OCF(CF3)COONH4] | 48 g/L | 
O=S(=O)(O)CCC(F)(F)C(F)(F)C(F)(F)C(F)(F)C(F)(F)C(F)(F)F [C6F13(CH2)2SO3H] | 1 g/L | 
N.O=C(O)C(F)(F)C(F)(F)C(F)(F)C(F)(F)F [CF3(CF2)3COONH4, ammonium perfluoropentanoate] | 82 g/L | 2
N.O=C(O)C(F)(F)C(F)(F)C(F)(F)C(F)(F)C(F)(F)F [CF3(CF2)4COONH4, ammonium perfluorohexanoate] | 56 g/L | 2.4
N.O=C(O)C(F)(OC(F)(F)C(F)(OC(F)(F)F)C(F)(F)F)C(F)(F)F (centres unmarked) [CF3OCF(CF3)CF2OCF(CF3)COONH4, ammonium 2,3,3,3-tetrafluoro-2-[1,1,2,3,3,3-hexafluoro-2-(trifluoromethoxy)propoxy]-propanoate] | 22 g/L | 3.4
